The text below walks through data of US8586591B2, “Aminopyrazine derivative and medicine” (Nippon Shinyaku Co., Ltd., priority 2009, dated 2013).

For one assay, the target named is T1, JAK2 tyrosine kinase (Homo sapiens, UniProt O60674).
T1 construct: purchased Carnabioscience Co
The experiment in a line: Test 1: inhibitory activity to JAK2 tyrosine kinase (ELISA). Format: biochemical. The settings on record: 25 μM ATP in substrate solution, 30° C. for 1 hour, n=2. In short, it runs like this:
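This is an ELISA read at A450 (HRP anti-phosphotyrosine antibody, TMB) of biotin-peptide phosphorylation captured on streptavidin. Enzyme solution was 0.75 nM JAK2, and the substrate solution was 625 nM peptide with 25 μM ATP in Tris pH 7.5 buffer. The reaction ran 1 h at 30 °C with compounds in duplicate, and IC50 was fitted non-linearly.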

In the next assay the target is T2, JAK3 tyrosine kinase (Homo sapiens, UniProt P52333).
T2 construct: purchased Carnabioscience Co
T2 sequence (P52333 1-1124): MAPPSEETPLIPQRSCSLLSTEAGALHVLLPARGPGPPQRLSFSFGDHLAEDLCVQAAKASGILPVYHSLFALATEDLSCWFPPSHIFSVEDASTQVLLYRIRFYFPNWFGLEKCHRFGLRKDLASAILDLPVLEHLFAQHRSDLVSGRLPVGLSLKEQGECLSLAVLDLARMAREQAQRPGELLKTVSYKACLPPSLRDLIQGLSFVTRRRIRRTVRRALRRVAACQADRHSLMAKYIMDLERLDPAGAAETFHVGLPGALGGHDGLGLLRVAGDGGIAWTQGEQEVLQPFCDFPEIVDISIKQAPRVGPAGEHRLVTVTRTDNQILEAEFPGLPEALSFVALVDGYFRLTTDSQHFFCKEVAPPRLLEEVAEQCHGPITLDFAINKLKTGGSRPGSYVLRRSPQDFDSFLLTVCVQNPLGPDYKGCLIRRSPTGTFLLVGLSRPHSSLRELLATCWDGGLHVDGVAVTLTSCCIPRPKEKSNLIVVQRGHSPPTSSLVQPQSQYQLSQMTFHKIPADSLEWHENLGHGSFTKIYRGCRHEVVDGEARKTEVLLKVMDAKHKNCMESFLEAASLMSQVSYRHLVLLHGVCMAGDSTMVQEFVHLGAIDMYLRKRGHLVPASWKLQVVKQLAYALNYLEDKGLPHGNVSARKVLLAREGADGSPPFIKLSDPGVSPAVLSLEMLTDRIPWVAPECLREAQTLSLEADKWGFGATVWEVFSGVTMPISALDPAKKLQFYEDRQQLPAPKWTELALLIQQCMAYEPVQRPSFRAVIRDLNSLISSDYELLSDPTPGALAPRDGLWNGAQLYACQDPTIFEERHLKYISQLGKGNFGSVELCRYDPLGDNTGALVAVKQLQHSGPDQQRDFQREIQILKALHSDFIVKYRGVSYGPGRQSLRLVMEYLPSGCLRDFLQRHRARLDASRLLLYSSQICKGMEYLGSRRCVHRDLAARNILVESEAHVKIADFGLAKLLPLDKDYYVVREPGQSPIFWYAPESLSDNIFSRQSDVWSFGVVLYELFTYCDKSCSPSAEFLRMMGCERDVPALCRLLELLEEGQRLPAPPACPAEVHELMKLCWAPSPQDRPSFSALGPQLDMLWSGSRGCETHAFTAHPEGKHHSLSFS
The experiment in a line: Test 1: inhibitory activity to JAK3 tyrosine kinase (ELISA). The assay is classed as biochemical. The settings on record: 25 μM ATP in substrate solution, 30° C. for 1 hour, n=2. In short, it runs like this:
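ELISA of JAK3 kinase activity with absorbance read at 450 nm. Compounds were tested from DMSO dilution series at 100-fold the measurement concentrations (1000–0.01 μM), diluted up to 20 times in assay buffer, against a DMSO negative control. IC50 was estimated by non-linear regression of absorbance.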

The target in assay [1] is BaF3 cells into which JAK2 V617F gene was introduced (Homo sapiens, UniProt O60674, V617F, cells depend on it). The experiment in a line: Test 2: growth inhibitory action against variant JAK2 expressed cells (MTT method). Format: cell-based. The settings on record: incubation for 3 days, triplicate, read-out: concentration of the test material which inhibited 50% of the cell growth (IC50). On the procedure: Test 2: Growth inhibitory action against variant JAK2 expressed cells
BaF3 cells into which JAK2 V617F gene was introduced ([…]) were inoculated on a 96-well plate in an amount of 1×10^3 cells/well and allowed to stand in a CO2 incubator. Next day, the test material was added to the cells. The test material was serially diluted with DMSO to give 10 mM, 6 mM, 3 mM, 1 mM, 600 μM, 300 μM, 100 μM, 60 μM, 30 μM, or 10 μM solution. This was diluted 100 times with distilled water to give 100 μM, 60 μM, 30 μM, 10 μM, 6 μM, 3 μM, 1 μM, 600 nM, 300 nM, or 100 nM solution. This solution of test material was added to the well in an amount of 10 μl/well. As a negative control, 1% DMSO solution was added to the well in an amount of 10 μl/well. In the above operation, the final concentration of the test material became 10 μM, 6 μM, 3 μM, 1 μM, 600 nM, 300 nM, 100 nM, 60 nM, 30 nM, 10 nM, or 0 nM (0.1% DMSO solution). The addition of the test material solution to each well was made in triplicate.
After continuous incubation for 3 days, the viable count was determined by an MTT method. The MTT method was carried out as follows. First, 10 μl each of solution containing 5 mg/ml of MTT (3-(4,5-dimethylthiazol-2-yl)-2,5-diphenyltetrazolium bromide) was added to each well. The plate was allowed to stand in a CO2 incubator for 4 hours, and then 100 μl of 0.04N HCl/2-propanol solution was added to each well to stop the reaction. The generated MTT-formazan was dissolved well with a multi-channel pipette, and the absorbance at 595 nm was measured with reference to that at 655 nm (Thermo Co.; Multiskan FC). Non-linear regression analysis was made by means of a SAS system (SAS Institute Inc.), and the concentration (IC50) of the test material which inhibited 50% of the cell growth was estimated.

Each structure is given as a SMILES string. Structures can show the parent of a compound that is named as a salt. Where two headings read alike, the source gives them in different places.

T1 sequence (O60674 whole entry): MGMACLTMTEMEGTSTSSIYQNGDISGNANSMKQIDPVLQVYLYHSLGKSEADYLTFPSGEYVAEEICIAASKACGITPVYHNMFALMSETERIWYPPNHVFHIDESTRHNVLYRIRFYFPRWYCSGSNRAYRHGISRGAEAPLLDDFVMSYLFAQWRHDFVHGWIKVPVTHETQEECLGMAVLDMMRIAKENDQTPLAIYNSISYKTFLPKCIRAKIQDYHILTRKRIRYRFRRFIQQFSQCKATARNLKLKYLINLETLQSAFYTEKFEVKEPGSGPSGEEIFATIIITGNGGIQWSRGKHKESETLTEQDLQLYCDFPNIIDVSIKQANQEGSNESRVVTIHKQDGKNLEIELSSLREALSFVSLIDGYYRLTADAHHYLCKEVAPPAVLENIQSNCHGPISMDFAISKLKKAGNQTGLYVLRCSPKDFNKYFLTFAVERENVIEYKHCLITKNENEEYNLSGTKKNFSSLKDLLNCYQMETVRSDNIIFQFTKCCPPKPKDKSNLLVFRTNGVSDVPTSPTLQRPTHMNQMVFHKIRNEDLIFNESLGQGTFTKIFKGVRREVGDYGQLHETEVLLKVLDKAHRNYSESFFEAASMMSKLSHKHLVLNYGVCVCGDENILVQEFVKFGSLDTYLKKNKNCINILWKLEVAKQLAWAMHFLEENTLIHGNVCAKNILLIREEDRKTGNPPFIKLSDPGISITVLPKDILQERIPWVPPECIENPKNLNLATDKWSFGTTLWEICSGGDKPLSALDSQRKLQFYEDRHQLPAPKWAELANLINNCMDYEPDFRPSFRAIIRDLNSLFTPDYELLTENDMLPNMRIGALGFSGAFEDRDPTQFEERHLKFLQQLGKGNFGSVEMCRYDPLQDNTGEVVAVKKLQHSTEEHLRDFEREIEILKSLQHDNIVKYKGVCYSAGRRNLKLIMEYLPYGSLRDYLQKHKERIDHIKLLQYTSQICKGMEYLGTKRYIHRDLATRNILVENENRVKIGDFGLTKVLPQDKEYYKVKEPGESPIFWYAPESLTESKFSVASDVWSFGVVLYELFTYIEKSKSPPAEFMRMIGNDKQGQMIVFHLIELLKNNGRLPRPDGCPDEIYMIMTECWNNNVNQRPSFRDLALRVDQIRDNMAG
Chain of BaF3 cells into which JAK2 V617F gene was introduced (O60674 whole entry V617F): as the sequence (O60674 whole entry) above, with V617F counted along it

On to `C[C@H](Nc1nc(Nc2cnccn2)cc(N2CCNC(=O)C2)n1)c1ccc(F)cc1` [Example 1, (S)-4-{2-[1-(4-Fluorophenyl)ethylamino]-6-(pyrazin-2-ylamino)pyrimidin-4-yl}piperazin-2-one], for which the results for the half-maximal inhibitory concentration (IC50) against JAK2 tyrosine kinase and on JAK3 tyrosine kinase were 0.94 nM and 45 nM, respectively. Further, in assay [1], the GI50 worked out at 83 nM.

Take `CC(=O)N[C@H]1CCN(c2cc(Nc3cnccn3)nc(N[C@@H](C)c3ccc(F)cc3)n2)C1` [Example 2, N-{(S)-1-[2-{[(S)-1-(4-Fluorophenyl)ethyl]amino-}-6-(pyrazin-2-ylamino)pyrimidin-4-yl]pyrrolidin-3-yl}acetamide hydrochloride]: the concentration for half-maximal inhibition (IC50) on JAK2 tyrosine kinase was 0.49 nM; against JAK3 tyrosine kinase, 43 nM. In addition, the GI50 in assay [1] was 70 nM.

As for `C[C@H](Nc1cc(-c2cnn(C)c2)cc(Nc2cnccn2)n1)c1ccc(F)cc1` [Example 4, (S)—N^2-[1-(4-Fluorophenyl)ethyl]-4-(1-methyl-1H-pyrazol-4-yl)-N^6-(pyrazin-2-yl)pyridine-2,6-diamine hydrochloride], the IC50 is 0.59 nM on JAK2 tyrosine kinase and 44 nM against JAK3 tyrosine kinase. For the same compound, the GI50 in assay [1] (hydrochloride) is 71 nM.

As to `C[C@H](Nc1cc(-c2ccc(O)nc2)cc(Nc2cnccn2)n1)c1ccc(F)cc1` [Example 7, (S)-2′-[1-(4-Fluorophenyl)ethylamino]-6′-(pyrazin-2-ylamino)-3,4′-bipyridin-6-ol hydrochloride], the IC50 is 0.42 nM at JAK2 tyrosine kinase and 39 nM at JAK3 tyrosine kinase. Besides, the GI50 in assay [1] amounted to 90 nM.

Consider `C[C@H](Nc1nc(Nc2cnccn2)cc(N2CCOCC2)n1)c1ccc(F)cc1` [Example 20, (S)—N^2-[1-(4-Fluorophenyl)ethyl]-6-morpholino-N^4-(pyrazin-2-yl)pyrimidine-2,4-diamine], for which the IC50 was found to be 0.69 nM on JAK2 tyrosine kinase and 21 nM on JAK3 tyrosine kinase. Besides, in assay [1], the GI50 is 55 nM.

As for `CC(=O)N[C@@H]1CCN(c2cc(Nc3cnccn3)nc(N[C@@H](C)c3ccc(F)cc3)n2)C1` [Example 27, N—((R)-1-{2-[(S)-1-(4-Fluorophenyl)ethylamino]-6-(pyrazin-2-ylamino)pyrimidin-4-}pyrrolidin-3-yl)acetamide hydrochloride], the IC50 was 0.52 nM against JAK2 tyrosine kinase and 42 nM at JAK3 tyrosine kinase. The GI50 in assay [1] came out at 89 nM.

Turning to `C[C@H](Nc1cc(-c2cn[nH]c2)cc(Nc2cnccn2)n1)c1ccc(F)cc1` [Example 28, (S)—N^2-[1-(4-Fluorophenyl)ethyl]-N^6-(pyrazin-2-yl)-4-(1H-pyrazol-4-yl)pyridine-2,6-diamine], the half-inhibitory concentration (IC50) at JAK2 tyrosine kinase was 1.2 nM; at JAK3 tyrosine kinase it was 110 nM. In assay [1], the GI50 came out at 94 nM.

Consider `C[C@H](Nc1cc(-c2cnn(C)c2)cc(Nc2cnccn2)n1)c1ccc(F)cc1` [Example 30, (S)—N^2-[1-(4-Fluorophenyl)ethyl]-4-(1-methyl-1H-pyrazol-4-yl)-N^6-(pyrazin-2-yl)pyridine-2,6-diamine maleate], for which the IC50 is 1.5 nM against JAK2 tyrosine kinase and 75 nM on JAK3 tyrosine kinase. The GI50 in assay [1] (maleate) turned out to be 60 nM.

In the case of `C[C@H](Nc1nc(Nc2cnccn2)cc(N2CCOCC2)n1)c1ccc(F)cc1` [Example 31, (S)—N^2-[1-(4-Fluorophenyl)ethyl]-6-morpholino-N^4-(pyrazin-2-yl)pyrimidine-2,4-diamine maleate], the IC50 on JAK2 tyrosine kinase came to 0.41 nM; on JAK3 tyrosine kinase, 26 nM. In addition, in assay [1] (maleate), the GI50 amounted to 87 nM.

Turning to `C[C@H](Nc1nc(Nc2cnccn2)cc(N2CCC(O)C2)n1)c1ccc(F)cc1` (stereo partly drawn) [Example 50, 1-{2-[(S)-1-(4-Fluorophenyl)ethylamino]-6-(pyrazin-2-ylamino)pyrimidin-4-yl}pyrrolidin-3-ol hydrochloride], the IC50 against JAK2 tyrosine kinase was determined as 0.84 nM; on JAK3 tyrosine kinase, 29 nM. Also, the GI50 in assay [1] came to 53 nM.

As for `COCn1cc(-c2cc(Nc3cnccn3)nc(N[C@@H](C)c3ccc(F)cc3)c2)cn1` [Example 219, (S)—N^2-[1-(4-Fluorophenyl)ethyl]-4-[1-(methoxymethyl)-1H-pyrazol-4-yl]-N^6-(pyrazin-2-yl)pyridine-2,6-diamine], the figures for the IC50 at JAK2 tyrosine kinase and on JAK3 tyrosine kinase were 2.6 nM and 69 nM, respectively.

On to `CNC1CN(c2cc(Nc3cnccn3)nc(N[C@@H](C)c3ccc(F)cc3)n2)C1` [Example 221, (S)—N^2-[1-(4-Fluorophenyl)ethyl]-6-[3-(methylamino)azetidin-1-yl]-N^4-(pyrazin-2-yl)pyrimidine-2,4-diamine], for which the IC50 on JAK2 tyrosine kinase worked out at 1.5 nM; against JAK3 tyrosine kinase it was 59 nM.

Take `C[C@H](Nc1nc(Nc2cnccn2)cc(N2CC(NC(N)=O)C2)n1)c1ccc(F)cc1` [Example 227, (S)-1-(1-{2-[1-(4-Fluorophenyl)ethylamino]-6-(pyrazin-2-ylamino)pyrimidin-4-yl}azetidin-3-yl)urea]: the IC50 at JAK2 tyrosine kinase is 1.1 nM; against JAK3 tyrosine kinase it was 20 nM.

On to `C[C@H](Nc1nc(Nc2cnccn2)cc(N2CC(CNC(=O)OC(C)(C)C)C2)n1)c1ccc(F)cc1` [Example 229, t-Butyl (S)-(1-{2-[1-(4-fluorophenyl)ethylamino]-6-(pyrazin-2-ylamino)pyrimidin-4-yl}azetidin-3-yl)methyl carbamate], for which the IC50 stood at 3.9 nM at JAK2 tyrosine kinase and 180 nM at JAK3 tyrosine kinase.

On to `C[C@H](Nc1nc(Nc2cnccn2)cc(N2CC(CN)C2)n1)c1ccc(F)cc1` [Example 230, (S)-6-[3-(Aminomethyl)azetidin-1-yl]-N^2-[1-(4-fluorophenyl)ethyl]-N^4-(pyrazin-2-yl)pyrimidine-2,4-diamine], for which the IC50 against JAK2 tyrosine kinase was 1.2 nM; on JAK3 tyrosine kinase, 63 nM.

Consider `C[C@H](Nc1cc(N2CC(N3CCOCC3)C2)cc(Nc2cnccn2)n1)c1ccc(F)cc1` [Example 233, (S)—N^2-[1-(4-Fluorophenyl)ethyl]-4-[3-morpholinoazetidin-1-yl]-N^6-(pyrazin-2-yl)pyridine-2,6-diamine], for which the IC50 against JAK2 tyrosine kinase worked out at 5.8 nM; against JAK3 tyrosine kinase it was 140 nM.

For the compound `C[C@H](Nc1cc(N2CC(N3CCC(O)CC3)C2)cc(Nc2cnccn2)n1)c1ccc(F)cc1` [Example 234, (S)-1-(1-{2-[1-(4-Fluorophenyl)ethylamino]-6-(pyrazin-2-ylamino)pyridin-4-yl}azetidin-3-yl)piperidin-4-ol], the IC50 came out at 5.4 nM against JAK2 tyrosine kinase and 170 nM against JAK3 tyrosine kinase.
